The text below walks through data of US8481586B2, “Pyrrolo[2,3-a] carbazoles and use thereof as PIM kinase inhibitors” (Centre National de la Recherche Scientifique, priority 2008, dated 2013).

For one series, the target named is PIM-3 (Homo sapiens (Human), UniProt Q86V86). In words: inhibition test on kinase PIM-3 (residual activity, IC50). The format is biochemical. As to conditions: for remaining activity at 10 µM: product at 10 μmol/L, Table 2, N.I. = not inhibitory, read-out: Percentage of residual activity PIM-3. From the text:
(§1) MKK1, ERK 1, ERK 2, JNK1, JNK2, JNK3, p38a MAPK, p38b MAPK, p38g MAPK, p38s MAPK, ERK8, RSK1, RSK2, PDK1, PKBa, PKBb, SGK1, S6K1, PKA, ROCK2, PRK2, PKCa, PKC zeta, PKD1, MSK1, MNK1, MNK2, MAPKAP-K2, MAPKAP-K3, PRAK, CAMKKa, CAMKKb, CAMK1, SmMLCK, PHK, CHK1, CHK2, GSK3b, CDK2/cyclin A, PLK1, PLK1 (Okadaic acid), Aurora B, Aurora C, AMPK, MARK3, BRSK2, MELK, CK1, CK2, NEK2a, NEK6, NEK7, IKKb, PIM-1, PIM-2, PIM-3, SRPK1, MST2, EF2K, HIPK2, HIPK3, PAK-4, PAK5, PAK6, Src, Lck, CSK.
(§2) The results in terms of residual activity of the kinases after being placed in contact with the compounds of Examples 2, 3 and 5, at a concentration of 10 μM (10 μmol/L), are shown in Table 1 below.
(§3) The higher the residual activity of the kinase tested, the lower the inhibitory activity of the test compounds on the tested kinase.
(§4) The compounds according to the invention were then tested on the kinases PIM-1, PIM-2 and PIM-3.
(§5) The results in terms of percentage of residual activity after placing the compounds according to the invention in contact with each of the kinases PIM-1, PIM-2 and PIM-3 are given in Table 2 below.
(§6) The higher the residual activity, the lower the inhibitory activity of the test compounds.
(§7) The mean inhibitory concentrations (IC50) of certain preferred compounds of the invention were determined in the following manner: the IC50 values were measured after performing the inhibition tests on the kinases PIM-1, PIM-2 and PIM-3 at ten different concentrations for each test compound, and the IC50 value was determined from the dose-inhibition curves obtained.

Another series deals with PIM-1 (Homo sapiens (Human), UniProt P11309). In words: inhibition test on kinase PIM-1 (residual activity, IC50). Format: biochemical. Conditions: for remaining activity at 10 µM: read-out: Percentage of residual activity PIM-1.
Sequence of PIM-1 (P11309 whole entry, species assumed): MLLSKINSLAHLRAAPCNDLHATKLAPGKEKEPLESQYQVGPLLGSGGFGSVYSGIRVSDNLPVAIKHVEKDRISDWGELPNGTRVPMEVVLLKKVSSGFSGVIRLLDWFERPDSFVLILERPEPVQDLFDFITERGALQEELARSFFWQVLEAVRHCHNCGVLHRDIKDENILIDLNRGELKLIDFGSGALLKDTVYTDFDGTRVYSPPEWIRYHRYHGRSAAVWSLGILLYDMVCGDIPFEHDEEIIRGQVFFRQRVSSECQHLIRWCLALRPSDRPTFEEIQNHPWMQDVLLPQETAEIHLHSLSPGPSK
Description: as §1, §2, §3, §4, §5, §6, §7

For the next series, the target named is PIM-2 (Homo sapiens (Human), UniProt Q9P1W9). In words: inhibition test on kinase PIM-2 (residual activity, IC50). The format is biochemical. Conditions: product at 10 μmol/L, Table 2, N.I. = not inhibitory; for remaining activity at 10 µM: read-out: Percentage of residual activity PIM-2.
Sequence of PIM-2 (Q9P1W9 whole entry, species assumed): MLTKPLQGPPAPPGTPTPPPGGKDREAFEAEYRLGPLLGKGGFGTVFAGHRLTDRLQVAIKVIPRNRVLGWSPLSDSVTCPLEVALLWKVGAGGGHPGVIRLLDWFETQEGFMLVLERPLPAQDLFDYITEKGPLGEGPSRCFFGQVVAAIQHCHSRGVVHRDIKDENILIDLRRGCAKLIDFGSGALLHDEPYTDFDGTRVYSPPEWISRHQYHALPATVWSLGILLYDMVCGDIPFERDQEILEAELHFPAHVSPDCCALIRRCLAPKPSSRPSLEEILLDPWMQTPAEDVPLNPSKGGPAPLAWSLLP
Description: as §1, §2, §3, §4, §5, §6, §7

The mark [1] stands for this setting: product at 10 μmol/L, Table 2, N.I. = not inhibitory.
The mark [2] stands for this setting: ten concentrations, dose-inhibition curve.

Turning to `O=Cc1c[nH]c2c1ccc1c3cc(-c4ccc(-c5ccccc5)cc4)ccc3[nH]c12` [Example 37, 7-(4-biphenyl)-1,10-dihydropyrrolo[2,3-a]carbazole-3-carbaldehyde], the remaining activity at 10 µM was 48% at PIM-3, 39% on PIM-1 (setting [1]) and 70% on PIM-2.
In the same order, the values of `O=Cc1c[nH]c2c1ccc1c3cc(-c4ccccc4)ccc3[nH]c12` [Example 38, 7-phenyl-1,10-dihydropyrrolo[2,3-a]carbazole-3-carbaldehyde] are 15%, 16% and 53%.
In the same order, the values of `O=Cc1c[nH]c2c1ccc1c3cc(-c4ccc(F)cc4)ccc3[nH]c12` [Example 39, 7-(4-fluorophenyl)-1,10-dihydropyrrolo[2,3-a]carbazole-3-carbaldehyde] are 15%, 15% and 55%.
As to `O=Cc1c[nH]c2c1ccc1c3cc(-c4ccc(F)cc4F)ccc3[nH]c12` [Example 40, 7-(2,4-difluorophenyl)-1,10-dihydropyrrolo[2,3-a]-carbazole-3-carbaldehyde], the remaining activity at 10 µM at PIM-3 was 6%; at PIM-1 (setting [1]), 6%; on PIM-2 it was 32%. The values for the IC50 on PIM-3 (setting [2]) and against PIM-1 (setting [2]) were 0.2 µM and 0.66 µM, respectively.
For `O=Cc1c[nH]c2c1ccc1c3cc(-c4ccc(C(F)(F)F)cc4)ccc3[nH]c12` [Example 41, 7-(4-trifluoromethylphenyl)-1,10-dihydropyrrolo-[2,3-a]carbazole-3-carbaldehyde], the remaining activity at 10 µM at PIM-3 is 23%; at PIM-1 (setting [1]), 28%; at PIM-2, 52%.
In the same order, the values of `O=Cc1c[nH]c2c1ccc1c3cc(-c4ccc(OC(F)(F)F)cc4)ccc3[nH]c12` [Example 42, 7-(4-trifluoromethoxyphenyl)-1,10-dihydropyrrolo[2,3-a]carbazole-3-carbaldehyde] are 31%, 29% and 70%.
As for `O=Cc1c[nH]c2c1ccc1c3ccc(Br)cc3[nH]c12` [Example 43, 8-bromo-1,10-dihydropyrrolo[2,3-a]carbazole-3-carbaldehyde], the melting point – broadly, the temperature, or range, at which the solid turns liquid – is greater than 250 °C. Further, at PIM-3, the remaining activity at 10 µM was 15%. In addition, at PIM-1 (setting [1]), the remaining activity at 10 µM was 44%. Moreover, the remaining activity at 10 µM on PIM-2 amounted to 39%.
`O=Cc1c[nH]c2c1ccc1c2[nH]c2cccc(Br)c21` [Example 44, 6-bromo-1,10-dihydropyrrolo[2,3-a]carbazole-3-carbaldehyde]: the remaining activity at 10 µM on PIM-3 came to 5%; on PIM-1 (setting [1]), 2%; on PIM-2 it was 6%.
As to `O=Cc1c[nH]c2c1ccc1c3cccc(Br)c3[nH]c12` [Example 45, 9-bromo-1,10-dihydropyrrolo[2,3-a]carbazole-3-carbaldehyde], the remaining activity at 10 µM on PIM-3 is 9%; on PIM-1 (setting [1]) it was 3%; on PIM-2, 28%.
In the same order, the values of `O=Cc1c[nH]c2c1ccc1c3cc(F)ccc3[nH]c12` [Example 46, 7-Fluoro-1,10-dihydropyrrolo[2,3-a]carbazole-3-carbaldehyde] are 5%, 4% and 21%.
In the same order, the values of `O=Cc1c[nH]c2c1ccc1c3cccc(F)c3[nH]c12` [Example 47, 9-Fluoro-1,10-dihydropyrrolo[2,3-a]carbazole-3-carbaldehyde] are 3%, 5% and 11%.
Regarding `O=Cc1c[nH]c2c1ccc1c2[nH]c2cc(Cl)cc(Cl)c21` [Example 48, 6,8-dichloro-1,10-dihydropyrrolo[2,3-a]carbazole-3-carbaldehyde], the remaining activity at 10 µM on PIM-3 came to 6%; at PIM-1 (setting [1]), 8%; on PIM-2, 34%.
On to `N#Cc1ccc2[nH]c3c(ccc4c(C=O)c[nH]c43)c2c1` [Example 49, 3-formyl-1,10-dihydropyrrolo[2,3-a]carbazole-7-carbonitrile], for which the remaining activity at 10 µM is 14% at PIM-3 and 92% on PIM-1 (setting [1]). Also, the “Percentage of residual activity PIM-2” value at PIM-2 is given as “N.I”.
For `O=Cc1c[nH]c2c1ccc1c3cc([N+](=O)[O-])ccc3[nH]c12` [Example 50, 7-nitro-1,10-dihydropyrrolo[2,3-a]carbazole-3-carbaldehyde], the remaining activity at 10 µM at PIM-3 came out at 35%. For the same compound, the “Percentage of residual activity PIM-1” value on PIM-1 (setting [1]) is listed as “N.I”. Moreover, the “Percentage of residual activity PIM-2” value at PIM-2 is given as “N.I”.
In the case of `CCc1cccc2c1[nH]c1c2ccc2c(C=O)c[nH]c21` [Example 51, 9-ethyl-1,10-dihydropyrrolo[2,3-a]carbazole-3-carbaldehyde], the remaining activity at 10 µM on PIM-3 worked out at 10%; at PIM-1 (setting [1]), 1%; at PIM-2, 14%.
As to `Cc1ccc2c(c1)[nH]c1c2ccc2c(C=O)c[nH]c21` [Example 52, 8-methyl-1,10-dihydropyrrolo[2,3-a]carbazole-3-carbaldehyde], the figures for the remaining activity at 10 µM at PIM-3, at PIM-1 (setting [1]) and on PIM-2 were 8%, 15% and 39%, respectively.
